Test [1] concerns the target T1, Recombinant ROCK1 (amino acids 1-477) (Homo sapiens, UniProt Q13464).
T1 construct: Recombinant ROCK1 (amino acids 1-477); by word order, ROCK1 from Carna Biosciences
Put plainly: ROCK inhibition assay, LANCE Ultra TR-FRET kinase assay (ROCK1). Conditions: 1 μM ATP, 50 nM ULight-CREBtide substrate. In kind it is biochemical. The gist of the method: (§1)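 LANCE Ultra TR-FRET kinase assay with recombinant ROCK1 (aa 1-477) or ROCK2 (aa 5-554), 50 nM ULight-CREBtide and ATP at 1 μM (ROCK1) or 4 μM (ROCK2) in HEPES pH 7.5 with MgCl2, 1 h at room temperature. EDTA stop with Eu anti-phospho-CREB Ser133 antibody; 665/615 nm read gives IC50.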

In test [2] the target is T2, Recombinant ROCK2 (amino acids 5-554) (Homo sapiens, UniProt O75116).
T2 construct: ROCK2 (amino acids 5-554); by word order, ROCK2 from SignalChem
T2 sequence (O75116 5-554): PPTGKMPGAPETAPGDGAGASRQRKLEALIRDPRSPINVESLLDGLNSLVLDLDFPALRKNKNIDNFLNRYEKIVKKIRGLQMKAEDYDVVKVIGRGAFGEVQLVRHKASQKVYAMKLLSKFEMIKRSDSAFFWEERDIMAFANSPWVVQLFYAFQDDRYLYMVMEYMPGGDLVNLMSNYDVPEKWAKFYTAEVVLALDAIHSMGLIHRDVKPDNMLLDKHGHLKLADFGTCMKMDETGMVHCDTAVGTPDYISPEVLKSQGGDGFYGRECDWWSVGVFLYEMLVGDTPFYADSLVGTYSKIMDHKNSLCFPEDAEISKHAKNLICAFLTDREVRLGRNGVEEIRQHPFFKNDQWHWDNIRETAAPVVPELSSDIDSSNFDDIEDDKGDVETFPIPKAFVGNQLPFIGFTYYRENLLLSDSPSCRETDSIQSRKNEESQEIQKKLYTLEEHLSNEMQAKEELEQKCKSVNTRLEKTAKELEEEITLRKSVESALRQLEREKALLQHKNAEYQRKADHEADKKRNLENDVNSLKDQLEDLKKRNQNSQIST
The test can be described thus: ROCK inhibition assay, LANCE Ultra TR-FRET kinase assay (ROCK2). The class given is biochemical. Conditions: 4 μM ATP, 50 nM ULight-CREBtide substrate. The gist of the method:
as §1
For orientation: TR-FRET usually uses a lanthanide donor and a delayed reading to cut background.

Some results are limits rather than exact numbers.

T1 sequence (Q13464 1-477): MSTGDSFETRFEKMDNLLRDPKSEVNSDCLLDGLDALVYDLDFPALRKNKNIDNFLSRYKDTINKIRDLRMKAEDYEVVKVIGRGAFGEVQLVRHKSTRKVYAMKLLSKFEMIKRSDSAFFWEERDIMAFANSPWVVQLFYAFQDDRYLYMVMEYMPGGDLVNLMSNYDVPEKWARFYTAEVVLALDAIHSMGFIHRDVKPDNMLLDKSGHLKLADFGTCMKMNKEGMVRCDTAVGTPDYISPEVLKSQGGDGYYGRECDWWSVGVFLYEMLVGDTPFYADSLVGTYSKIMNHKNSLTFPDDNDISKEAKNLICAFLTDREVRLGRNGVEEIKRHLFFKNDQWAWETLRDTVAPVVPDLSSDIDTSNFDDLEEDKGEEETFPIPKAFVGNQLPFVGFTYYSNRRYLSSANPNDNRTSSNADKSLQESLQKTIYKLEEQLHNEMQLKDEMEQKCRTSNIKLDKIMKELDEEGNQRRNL

With `O=C(NCC1CCN(CC(F)(F)F)CC1)c1cccc(Cn2ccc3cc(N4CCOCC4)ccc3c2=O)c1` [Compound 220], the results for the IC50 in test [1] and in test [2] were 101 to 500 nM and 10 to 100 nM, respectively.

With `CNC(=O)c1cccc(C(C)n2cnc3cc(-c4ccnn4C)ccc3c2=O)c1` (stereo not drawn) [Compound 426], the IC50 in test [1] was 11 to 100 nM; in test [2], less than 10 nM.

`O=C(NCCO)c1cccc(Cn2cnc3cc(-c4cn[nH]c4C(F)(F)F)ccc3c2=O)c1` [Compound 384]: the IC50 lay in the range of 11 to 100 nM in test [1] and 10 to 100 nM in test [2].

As for `C[C@H](c1cccc(C(=O)NCC2COC2)c1)n1cnc2cc(-c3ccnn3C)ccc2c1=O` [Compound 479], the values for the IC50 in test [1] and in test [2] were 11 to 100 nM and less than 10 nM, respectively.

`Nc1cc(-c2ccc3c(=O)n(Cc4cccc(C(=O)NCc5ccccc5)c4)ccc3c2)ccn1` [Compound 181]: the 50% inhibitory concentration (IC50) in test [1] lay in the range of 101 to 500 nM; in test [2], 10 to 100 nM.

`O=C(Nc1cccc(Cn2ccc3cc(-c4c[nH]nc4Cl)ccc3c2=O)c1)C1COC1` [Compound 346]: the IC50 in test [1] fell in the range of 101 to 500 nM; in test [2], 10 to 100 nM.

Turning to `Cc1nocc1-c1ccc2c(=O)n(Cc3cccc(C(=O)N[C@H]4C[C@H](O)C4)c3)ccc2c1` [Compound 73], the half-inhibitory concentration (IC50) in test [1] is 101 to 500 nM; in test [2], 10 to 100 nM.

In the case of `CNC(=O)c1cccc(Cn2cc(CC(C)O)c3cc(-c4c[nH]nc4N)ccc3c2=O)c1` (stereo not drawn) [Compound 562], the IC50 was 11 to 100 nM in test [1] and less than 10 nM in test [2].

Take `Nc1cc(-c2ccc3c(=O)n(Cc4cccc(C(=O)Nc5ccc6c(c5)CCOC6)c4)ccc3c2)ccn1` [Compound 196]: the IC50 in test [1] is 101 to 500 nM; in test [2], 10 to 100 nM.

`COc1cccc(C(C)n2ccc3cc(-c4ccnc(N)c4)ccc3c2=O)c1` (stereo not drawn) [Compound 26]: the half-maximal inhibitory concentration (IC50) fell in the range of 101 to 500 nM in test [1] and 10 to 100 nM in test [2].

`CNC(=O)c1cccc(Cn2ccc3cc(N4CCOCC4)ccc3c2=O)c1` [Compound 328, N-methyl-3-((6-morpholino-1-oxoisoquinolin-2(1H)-yl)methyl)benzamide]: the values for the 50% inhibitory concentration (IC50) in test [1] and in test [2] were 101 to 500 nM and 10 to 100 nM, respectively.

In the case of `[2H]C([2H])([2H])NC(=O)c1cccc(Cn2ccc3cc(-c4cn[nH]c4F)ccc3c2=O)c1` [Compound 296], the figures for the IC50 in test [1] and in test [2] were 11 to 100 nM and less than 10 nM, respectively.

In the case of `CC(O)c1cn(Cc2cccc(C(=O)NC3CC3)c2)c(=O)c2ccc(-c3c[nH]nc3C(F)(F)F)cc12` (stereo not drawn) [Compound 533], the IC50 was 101 to 500 nM in test [1] and 10 to 100 nM in test [2].

In the case of `CNC(=O)c1cccc(Cn2ccc3cc(-c4cn[nH]c4C(F)F)ccc3c2=O)c1` [Compound 286], the IC50 in test [1] is 11 to 100 nM; in test [2], less than 10 nM.

Consider `Cn1nccc1-c1ccc2c(=O)n(Cc3cc(F)cc(C(=O)N[C@H]4CC[C@H](O)CC4)c3)ccc2c1` [Compound 164], for which the half-maximal inhibitory concentration (IC50) in test [1] fell in the range of 101 to 500 nM; in test [2], 10 to 100 nM.

As to `CNC(=O)c1cc(F)cc(C(C)n2ccc3cc(-c4cn[nH]c4Cl)ccc3c2=O)c1` (stereo not drawn) [Compound 294], the half-maximal inhibitory concentration (IC50) in test [1] was 11 to 100 nM; in test [2], less than 10 nM.

Turning to `O=C(N[C@H]1CC[C@H](O)CC1)c1cc(F)cc(Cn2ccc3cc(-c4c[nH]nc4C(F)(F)F)ncc3c2=O)c1` [Compound 260], the IC50 is 11 to 100 nM in test [1] and less than 10 nM in test [2].

For `O=C(NCCO)c1cc(F)cc(Cn2ccc3cc(-c4c[nH]nc4Cl)ccc3c2=O)c1` [Compound 65], the figures for the IC50 in test [1] and in test [2] were 101 to 500 nM and 10 to 100 nM, respectively.

On to `CN1CCC(NC(=O)c2cccc(Cn3cnc4cc(-c5cn[nH]c5Cl)ccc4c3=O)c2)CC1` [Compound 408], for which the IC50 in test [1] and in test [2] was less than 10 nM in each case.

Turning to `O=C(NCC1COC1)c1cc(F)cc(Cn2ccc3cc(-c4c[nH]nc4C(F)(F)F)ccc3c2=O)c1` [Compound 136], the concentration for half-maximal inhibition (IC50) is 11 to 100 nM in test [1] and less than 10 nM in test [2].

With `CNC(=O)c1cccc(Cn2cnc3cc(-c4ccnc(N)c4)ccc3c2=O)c1` [Compound 433], the IC50 in test [1] lay in the range of 101 to 500 nM; in test [2], 10 to 100 nM.

For `Cc1nocc1-c1ccc2c(=O)n(Cc3cccc(C(=O)Nc4ccc5c(c4)CNCC5)c3)ccc2c1` [Compound 100], the IC50 in test [1] and in test [2] was less than 10 nM each time.

For the compound `CNC(=O)c1cc(F)cc(Cn2ccc3cc(-c4cn[nH]c4Cl)ccc3c2=O)c1` [Compound 293], the IC50 in test [1] was 11 to 100 nM; in test [2], less than 10 nM.

On to `C[C@H](c1cccc(C(=O)NC2COC2)c1)n1cnc2cc(-c3cn[nH]c3N)ccc2c1=O` [Compound 520], for which the concentration for half-maximal inhibition (IC50) in test [1] was 11 to 100 nM; in test [2], less than 10 nM.

Turning to `CN1CCC(CNC(=O)c2cccc(Cn3ccc4cc(-c5c[nH]nc5C(F)(F)F)ccc4c3=O)c2)CC1` [Compound 51], the IC50 in test [1] and in test [2] was less than 10 nM in each case.

For the compound `Cc1nocc1-c1ccc2c(=O)n(Cc3cc(F)cc(C(=O)Nc4ccc5c(c4)CN(C4CC4)CC5)c3)ccc2c1` [Compound 161], the half-inhibitory concentration (IC50) is 11 to 100 nM in test [1] and less than 10 nM in test [2].

As for `Cc1nocc1-c1ccc2c(=O)n(Cc3cc(F)cc(C(=O)N[C@H]4CC[C@@H](O)CC4)c3)ccc2c1` [Compound 140], the IC50 in test [1] was 101 to 500 nM; in test [2] it was 100 to 500 nM.

With `CNC(=O)c1cccc([C@@H](C)n2cnc3cc(-c4cn[nH]c4C(F)F)ccc3c2=O)c1` [Compound 457], the half-inhibitory concentration (IC50) is 11 to 100 nM in test [1] and less than 10 nM in test [2].

`COc1cc(F)cc(Cn2cnc3cc(-c4c[nH]nc4C(F)F)ccc3c2=O)c1` [Compound 360]: the values for the 50% inhibitory concentration (IC50) in test [1] and in test [2] were 11 to 100 nM and less than 10 nM, respectively.

Regarding `Cc1nocc1-c1ccc2c(=O)n(Cc3cccc(C(=O)Nc4ccn(C)n4)c3)ccc2c1` [Compound 89], the IC50 was more than 501 nM in test [1] and 100 to 500 nM in test [2].

Take `CNC(=O)c1cccc(Cn2ccc3cc(-c4cnoc4C)ccc3c2=O)c1` [Compound 301]: the IC50 in test [1] was more than 501 nM; in test [2] it was more than 500 nM.

With `Cc1nocc1-c1ccc2c(=O)n(Cc3cccc(C(=O)Nc4nc5c(s4)CCN(C)C5)c3)ccc2c1` [Compound 94], the half-inhibitory concentration (IC50) in test [1] and in test [2] was less than 10 nM each time.

In the case of `CC(=O)Nc1cccc(Cn2ccc3cc(-c4cnoc4C)ccc3c2=O)c1` [Compound 334], the 50% inhibitory concentration (IC50) in test [1] was in the range of 101 to 500 nM; in test [2] it was 10 to 100 nM.

Regarding `CN1CCc2sc(NC(=O)c3cccc(Cn4ccc5cc(-c6ccnn6C)ccc5c4=O)c3)nc2C1` [Compound 121], the IC50 is 11 to 100 nM in test [1] and less than 10 nM in test [2].

As for `CN1CCC(NC(=O)c2cccc(Cn3ccc4cc(-c5c[nH]nc5C(F)(F)F)ccc4c3=O)c2)CC1` [Compound 47], the IC50 in test [1] and in test [2] was less than 10 nM in each case.

As to `CN1CCC(CNC(=O)c2cc(F)cc(Cn3ccc4cc(-c5c[nH]nc5C(F)F)ccc4c3=O)c2)CC1` [Compound 62], the IC50 in test [1] and in test [2] was less than 10 nM each time.

Consider `[2H]C([2H])([2H])NC(=O)c1cccc([C@@H](C)n2cnc3cc(-c4cn[nH]c4Cl)ccc3c2=O)c1` [Compound 467], for which the IC50 in test [1] is 11 to 100 nM; in test [2], less than 10 nM.

`COc1cc(F)cc(Cn2ccc3cc(-c4c[nH]nc4Cl)ccc3c2=O)c1` [Compound 17]: the IC50 was 11 to 100 nM in test [1] and less than 10 nM in test [2].

On to `Cc1n[nH]cc1-c1ccc2c(=O)n(Cc3cccc(C(=O)NCC(F)(F)F)c3)ccc2c1` [Compound 41], for which the IC50 was 101 to 500 nM in test [1] and 10 to 100 nM in test [2].

`CC(c1cccc(O)c1)n1ccc2cc(-c3c[nH]nc3Cl)ccc2c1=O` (stereo not drawn) [Compound 21]: the IC50 in test [1] was 11 to 100 nM; in test [2] it was less than 10 nM.

On to `O=C(NC1CCN(C2COC2)CC1)c1cccc(Cn2ccc3cc(-c4c[nH]nc4C(F)(F)F)ccc3c2=O)c1` [Compound 48], for which the results for the IC50 in test [1] and in test [2] were 101 to 500 nM and less than 10 nM, respectively.

`NS(=O)(=O)c1ccc(NC(=O)c2cccc(Cn3ccc4cc(-c5c[nH]nc5C(F)(F)F)ccc4c3=O)c2)cc1` [Compound 42]: the IC50 in test [1] is 101 to 500 nM; in test [2] it was 10 to 100 nM.

Take `CNC(=O)c1cccc(Cn2cc(Cl)c3cc(-c4conc4C)ccc3c2=O)c1` [Compound 310]: the half-inhibitory concentration (IC50) in test [1] was 11 to 100 nM; in test [2], less than 10 nM.

`Cc1nocc1-c1ccc2c(=O)n(Cc3cccc(C(=O)NCCc4cccnc4)c3)cnc2c1` [Compound 419]: the 50% inhibitory concentration (IC50) in test [1] and in test [2] was less than 10 nM throughout.

In the case of `CC(O)c1cn(Cc2cccc(C(=O)NC3COC3)c2)c(=O)c2ccc(-c3c[nH]nc3C(F)(F)F)cc12` (stereo not drawn) [Compound 534], the IC50 in test [1] was 11 to 100 nM; in test [2], less than 10 nM.

For `CNC(=O)c1cc(F)cc(Cn2ccc3cc(-c4cn[nH]c4C(F)(F)F)ncc3c2=O)c1` [Compound 246], the IC50 in test [1] is 11 to 100 nM; in test [2], less than 10 nM.

Regarding `O=C(NC1CCOCC1)c1cccc(Cn2cnc3cc(-c4cn[nH]c4C(F)(F)F)ccc3c2=O)c1` [Compound 376], the IC50 in test [1] was 11 to 100 nM; in test [2] it was less than 10 nM.

`Cc1nocc1-c1ccc2c(=O)n(C(CO)c3cccc(Cl)c3)cnc2c1` (stereo not drawn) [Compound 488]: the IC50 in test [1] was 101 to 500 nM; in test [2] it was 10 to 100 nM.

As to `CNC(=O)c1cc(Cn2ccc3cc(-c4conc4C)ccc3c2=O)ccn1` [Compound 313], the 50% inhibitory concentration (IC50) in test [1] is more than 501 nM; in test [2], 100 to 500 nM.

With `CC(=O)Nc1cccc(Cn2ccc3cc(-c4c[nH]nc4Cl)ccc3c2=O)c1` [Compound 345], the IC50 in test [1] is 11 to 100 nM; in test [2], 10 to 100 nM.

As for `CNC(=O)c1cccc(Cn2cnc3cc(-c4cn[nH]c4C(F)F)ccc3c2=O)c1` [Compound 391], the IC50 in test [1] was 11 to 100 nM; in test [2], less than 10 nM.

For orientation: IC50 means the midpoint of a concentration-inhibition curve.

The values above are taken from patent publication US12064426B2, “Selective inhibitors of ROCK1 and ROCK2 protein kinases and uses thereof” (GENOSCO Inc., priority 2021, dated 2024).
